Columns and labels:
T. rubrum = assay: Inhibition of growth of Trichophyton rubrum by plant defensins (microtitre A595 antifungal assay); assay type: cell-based; details: ½ strength PDB, 30° C.
Experimental: (§1) The inhibitory effects of the plant defensins on the growth of Trichophyton rubrum, T. interdigitale, Microsporum fulvum and C. albicans (all obtained from the National Mycology Reference Centre, South Australia Pathology at the Women's and Children's Hospital, Adelaide, Australia) are measured essentially as described by Broekaert et al. (1990) FEMS Microbiol Lett 69:55-59.
(§2) Spores of T. rubrum, T. interdigitale and M. fulvum are isolated from sporulating fungus growing on ½ strength Sabouraud dextrose agar. Spores were removed from the plates by the addition of ½ strength potato dextrose broth (PDB). C. albicans cells are grown in Yeast Peptone Broth (YPD) for 16 h. Spore and cell concentrations are measured using a hemocytometer.
(§3) Antifungal assays are conducted in 96 well microtitre plates essentially as herein described. Wells are loaded with 20 μL of filter sterilized (0.22 Ξ m syringe filter, Millipore) defensin (10× stock for each final concentration) or water and 80 μL of 5×10^4 spores/mL (T. rubrum, T. interdigitale, M. fulvum) or 5,000 cells/mL (C. albicans) in ½ strength PDB. The plates are incubated at 30° C. Fungal growth is assayed by measuring optical density at 595 nm (A595) using a microtitre plate reader (SpectraMax Pro M2; Molecular Devices. Growth is allowed to proceed until the optical density (OD) of the fungus in the absence of any test defensin reached an OD of 0.2. Each test is performed in duplicate.

M. fulvum = assay: Inhibition of growth of Microsporum fulvum by plant defensins (microtitre A595 antifungal assay); assay type: cell-based; details: ½ strength PDB, 30° C., A595
Experimental: as §1, §2, §3

T. albicans = assay: Inhibition of growth of C. albicans by plant defensins, Example 1 (microtitre A595 antifungal assay); assay type: cell-based; details: Table 3; ½ strength PDB, 30° C., A595
Experimental: as §1, §2, §3

C. albicans = assay: Inhibition of growth of Candida albicans, Example 2 antifungal assay; assay type: cell-based; details: Table 4; ½ strength PDB, 30° C., A595
Experimental: (§4) The inhibitory effects of the plant defensins on the growth of Candida albicans, Aspergillus fumigatus (obtained from the National Mycology Reference Centre, South Australia Pathology at the Women's and Children's Hospital, Adelaide, Australia), C. glabrata, C. tropicalis, A. flavus, A. niger, A. fumigants, Cryptococcus neoformans and C. gattii (obtained from Dee Carter, University of Sydney, New South Wales, Australia) are measured essentially as described by Broekaert et al. (1990) FEMS Microbiol Lett 69:55-59.
as §2, with “A. flavus. A. niger” for “T. rubrum, T. interdigitale”, “A. fumigatus” for “M. fulvum”, “albicans, C. glabrata, C. tropicalis, C. neoformans and C. gattii” for “albicans”
as §3, with “μm” for “Ξ m”, “(A. flavus, A. niger, A. fumigatus),” for “(T. rubrum, T. interdigitale, M. fulvum) or”, “albicans, C. glabrata, C. tropicalis) or 1×10^6 cells/mL (C. neoformans, C. gattii)” for “albicans)”

C. glabrata = assay: Inhibition of growth of C. glabrata, Example 2 antifungal assay; assay type: cell-based; details: ½ strength PDB, 30° C., A595
Experimental: as §4
as §2, with “A. flavus. A. niger” for “T. rubrum, T. interdigitale”, “A. fumigatus” for “M. fulvum”, “albicans, C. glabrata, C. tropicalis, C. neoformans and C. gattii” for “albicans”
as §3, with “μm” for “Ξ m”, “(A. flavus, A. niger, A. fumigatus),” for “(T. rubrum, T. interdigitale, M. fulvum) or”, “albicans, C. glabrata, C. tropicalis) or 1×10^6 cells/mL (C. neoformans, C. gattii)” for “albicans)”

C. tropicalis = assay: Inhibition of growth of C. tropicalis, Example 2 antifungal assay; assay type: cell-based; details: ½ strength PDB, 30° C., A595
Experimental: as §4
as §2, with “A. flavus. A. niger” for “T. rubrum, T. interdigitale”, “A. fumigatus” for “M. fulvum”, “albicans, C. glabrata, C. tropicalis, C. neoformans and C. gattii” for “albicans”
as §3, with “μm” for “Ξ m”, “(A. flavus, A. niger, A. fumigatus),” for “(T. rubrum, T. interdigitale, M. fulvum) or”, “albicans, C. glabrata, C. tropicalis) or 1×10^6 cells/mL (C. neoformans, C. gattii)” for “albicans)”

A. flavus = assay: Inhibition of growth of A. flavus, Example 2 antifungal assay; assay type: cell-based; details: ½ strength PDB, 30° C., A595
Experimental: as §4
as §2, with “A. flavus. A. niger” for “T. rubrum, T. interdigitale”, “A. fumigatus” for “M. fulvum”, “albicans, C. glabrata, C. tropicalis, C. neoformans and C. gattii” for “albicans”
as §3, with “μm” for “Ξ m”, “(A. flavus, A. niger, A. fumigatus),” for “(T. rubrum, T. interdigitale, M. fulvum) or”, “albicans, C. glabrata, C. tropicalis) or 1×10^6 cells/mL (C. neoformans, C. gattii)” for “albicans)”

A. niger = assay: Inhibition of growth of A. niger, Example 2 antifungal assay; assay type: cell-based; details: ½ strength PDB, 30° C., A595
Experimental: as §4
as §2, with “A. flavus. A. niger” for “T. rubrum, T. interdigitale”, “A. fumigatus” for “M. fulvum”, “albicans, C. glabrata, C. tropicalis, C. neoformans and C. gattii” for “albicans”
as §3, with “μm” for “Ξ m”, “(A. flavus, A. niger, A. fumigatus),” for “(T. rubrum, T. interdigitale, M. fulvum) or”, “albicans, C. glabrata, C. tropicalis) or 1×10^6 cells/mL (C. neoformans, C. gattii)” for “albicans)”

A. fumigatus = assay: Inhibition of growth of Aspergillus fumigatus, Example 2 antifungal assay; assay type: cell-based; details: ½ strength PDB, 30° C., A595
Experimental: as §4
as §2, with “A. flavus. A. niger” for “T. rubrum, T. interdigitale”, “A. fumigatus” for “M. fulvum”, “albicans, C. glabrata, C. tropicalis, C. neoformans and C. gattii” for “albicans”
as §3, with “μm” for “Ξ m”, “(A. flavus, A. niger, A. fumigatus),” for “(T. rubrum, T. interdigitale, M. fulvum) or”, “albicans, C. glabrata, C. tropicalis) or 1×10^6 cells/mL (C. neoformans, C. gattii)” for “albicans)”

C. neoformans = assay: Inhibition of growth of Cryptococcus neoformans, Example 2 antifungal assay; assay type: cell-based; details: ½ strength PDB, 30° C., A595
Experimental: as §4
as §2, with “A. flavus. A. niger” for “T. rubrum, T. interdigitale”, “A. fumigatus” for “M. fulvum”, “albicans, C. glabrata, C. tropicalis, C. neoformans and C. gattii” for “albicans”
as §3, with “μm” for “Ξ m”, “(A. flavus, A. niger, A. fumigatus),” for “(T. rubrum, T. interdigitale, M. fulvum) or”, “albicans, C. glabrata, C. tropicalis) or 1×10^6 cells/mL (C. neoformans, C. gattii)” for “albicans)”

C. gattii = assay: Inhibition of growth of C. gattii, Example 2 antifungal assay; assay type: cell-based; details: ½ strength PDB, 30° C., A595
Experimental: as §4
as §2, with “A. flavus. A. niger” for “T. rubrum, T. interdigitale”, “A. fumigatus” for “M. fulvum”, “albicans, C. glabrata, C. tropicalis, C. neoformans and C. gattii” for “albicans”
as §3, with “μm” for “Ξ m”, “(A. flavus, A. niger, A. fumigatus),” for “(T. rubrum, T. interdigitale, M. fulvum) or”, “albicans, C. glabrata, C. tropicalis) or 1×10^6 cells/mL (C. neoformans, C. gattii)” for “albicans)”

E. coli = assay type: cell-based, Escherichia coli; details: for IC50: Mueller-Hinton Broth, 37° C., 18 hours, up to 20 μM, read-out: IC50 against E. coli
Experimental: (§5) A single E. coli or B. subtilis colony was used to inoculate 5 ml of Luria-Bertani media and grown overnight at 37° C. The following day, the optical density of the culture was measured and the bacteria diluted to an optical density at 600 nm (OD600) of 0.01 in Mueller-Hinton Broth. Diluted E. coli or B. subtilis were added to 96-well plates with defensins at concentrations of 20 μM, 10 μM, 5 μM, 2.5 μM, 1.25 μM, 0.625 μM or 0.3125 μM. Plates were read at OD595 to obtain time zero data points. Plates were incubated at 37° C. for 18 hours before reading again at OD595 to assess the amount of bacterial growth.

B. subtilis = assay: Inhibition of the growth of Bacillus subtilis (OD595, 18 hours); assay type: cell-based; details: for IC50: Mueller-Hinton Broth, 37° C., 18 hours, up to 20 μM, read-out: IC50 against B. subtilis
Experimental: as §5

[1] = system: Trichophyton rubrum, T. interdigitale, Microsporum fulvum and C. albicans; assay: Inhibition assays of Example 1, summary across the range of fungal pathogens; assay type: cell-based; details: summary of Table 3, at the concentrations tested
Experimental: as §1, §2, §3

T. interdigitale = assay: Inhibition of growth of T. interdigitale by plant defensins (microtitre A595 antifungal assay); assay type: cell-based, Trichophyton interdigitale; details: ½ strength PDB, 30° C.
Experimental: as §1, §2, §3

[2] = at the concentrations tested (0.3125-20 μM)

Molecule | IC50 against T. rubrum (T. rubrum) [µg/mL] | IC50 against M. fulvum (M. fulvum) [µg/mL] | IC50 against T. albicans (T. albicans) [µg/mL] | IC50 against C. albicans (C. albicans) [µg/mL] | IC50 against C. glabrata (C. glabrata) [µg/mL] | IC50 against C. tropicalis (C. tropicalis) [µg/mL] | IC50 against A. flavus (A. flavus) [µg/mL] | IC50 against A. niger (A. niger) [µg/mL] | IC50 against A. fumigatus (A. fumigatus) [µg/mL] | IC50 against C. neoformans (C. neoformans) [µg/mL] | IC50 against C. gattii (C. gattii) [µg/mL] | IC50 (E. coli) [µM] | IC50 (B. subtilis) [µM] | Activity across the range of fungal pathogens [1] | IC50 against T. interdigitale (T. interdigitale) [µg/mL] | Inhibition of growth of E. coli (E. coli; [2]) | Inhibition of growth of B. subtilis (B. subtilis; [2])
HXL013: Class I plant defensin from Glycine max (KDCLTRRHGFQGRCLFDRQCAHVCRSDGFIGGQCRGPLRKCFCSRPC; HXL013 Glycine max) | 22 | 5.5 | 20 | 20 | 25 | 12 | >100 | >100 | >100 | 9 | 22 | > 20 | 10 | intermediate activity |  |  | 
HXL015: Class I plant defensin from Oryza sativa (RHCLSQSHRFKGMCVSSNNCANVCRTESFPDGECKSHGLERKCFCKKVC; HXL015 Oryza sativa) | 10 | 12.5 |  | 5 |  |  |  |  |  |  |  |  |  | intermediate activity | 3.5 |  | 
HXL003: Class I plant defensin from Triticum aestivum (ARDCTSQSHKFVGLCLSDRNCASVCLTEYFTGGKCDHRRCVCTKGC; HXL003 Triticum aestivum) |  | >100 | >100 | >100 | >100 | 8 | >100 | >100 | >100 | 3 | 20 | > 20 | > 20 |  |  | did not inhibit the growth | did not inhibit the growth
CC[C@H](C)[C@H](NC(=O)[C@H](CCCCN)NC(=O)[C@H](CCC(=O)O)NC(=O)[C@H](CCCCN)NC(=O)[C@H](CO)NC(=O)[C@H](CCCCN)NC(=O)[C@H](CCCNC(=N)N)NC(=O)[C@H](Cc1ccccc1)NC(=O)[C@H](Cc1ccccc1)NC(=O)[C@H](CC(=O)O)NC(=O)CNC(=O)[C@H](CC(C)C)NC(=O)[C@@H](N)CC(C)C)C(=O)NCC(=O)N[C@@H](CCCCN)C(=O)N[C@@H](CCC(=O)O)C(=O)N[C@@H](Cc1ccccc1)C(=O)N[C@@H](CCCCN)C(=O)N[C@@H](CCCNC(=N)N)C(=O)N[C@H](C(=O)N[C@H](C(=O)N[C@@H](CCC(N)=O)C(=O)N[C@@H](CCCNC(=N)N)C(=O)N[C@H](C(=O)N[C@@H](CCCCN)C(=O)N[C@@H](CC(=O)O)C(=O)N[C@@H](Cc1ccccc1)C(=O)N[C@@H](CC(C)C)C(=O)N[C@@H](CCCNC(=N)N)C(=O)N[C@@H](CC(N)=O)C(=O)N[C@@H](CC(C)C)C(=O)N[C@H](C(=O)N1CCC[C@H]1C(=O)N[C@@H](CCCNC(=N)N)C(=O)N[C@H](C(=O)N[C@@H](CCC(=O)O)C(=O)N[C@@H](CO)C(=O)O)[C@@H](C)O)C(C)C)[C@@H](C)CC)C(C)C)[C@@H](C)CC [LL37, reference compound] |  |  |  |  |  |  |  |  |  |  |  | 2.5 |  |  |  |  | 

Source: patent publication US20180193412A1, “Method of In Vivo Treatment” (Hexima Limited, priority 2015, published 2018)
